The values below are quoted from earlier work in patent US20240207239A1, “COMPOSITION AND PREPARATION METHOD THEREFOR” (priority 2021, published 2024).

For this series the following is noted: range of pH 1-12.

`CNC(=O)c1ccc(N2C(=S)N(c3cnc(C#N)c(C(F)(F)F)c3)C(=O)C23CCC3)cc1F` [Apalutamide, 4-[7-(6-cyano-5-trifluoromethylpyridine-3-yl)-8-oxo-6-thioxo-5,7-diazaspiro[3. 4]octan-5-yl]-2-fluoro-N-methylbenzamide]: the “solubility in aqueous medium” value is recorded as “almost insoluble”.
